Patent US20080175794A1, “Substituted Pyridazinyl- and Pyrimidinyl-Quinolin-4-Ylamine Analogues” (NEUROGEN CORPORATION, priority 2005, published 2008)

Biological target: T1, human capsaicin receptor (Homo sapiens, UniProt Q8NER1)
T1 construct: expressed in transfected cells
Assay: Calcium mobilization assay, determination of antagonist activity (Example 6)
Assay type: cell-based
Conditions: Table III; assay provided in Example 6; cells expressing human capsaicin receptor, capsaicin at EC50
Method: A cDNA encoding full length human capsaicin receptor (SEQ ID NO:1, 2 or 3 of U.S. Pat. No. 6,482,611) is subcloned in the plasmid pBK-CMV (Stratagene, La Jolla, Calif.) for recombinant expression in mammalian cells.
Human embryonic kidney (HEK293) cells are transfected with the pBK-CMV expression construct encoding the full length human capsaicin receptor using standard methods. The transfected cells are selected over two weeks in media containing G418 (400 μg/ml) to obtain a pool of stably transfected cells. Independent clones are isolated from this pool by limiting dilution to obtain clonal stable cell lines for use in subsequent experiments.
Cells transfected with expression plasmids (as described in Example 4) and thereby expressing human capsaicin receptor are seeded and grown to 70-90% confluency in FALCON black-walled, clear-bottomed 96-well plates (#3904, BECTON-DICKINSON, Franklin Lakes, N.J.). The culture medium is emptied from the 96 well plates and FLUO-3 AM calcium sensitive dye (Molecular Probes, Eugene, Oreg.) is added to each well (dye solution: 1 mg FLUO-3 AM, 440 μL DMSO and 440 μl 20% pluronic acid in DMSO, diluted 1:250 in Krebs-Ringer HEPES (KRH) buffer (25 mM HEPES, […], 0.96 mM NaH2PO4, 1 mM MgSO4, 2 mM CaCl2, 5 mM glucose, 1 mM probenecid, pH 7.4), 50 μl diluted solution per well). Plates are covered with aluminum foil and incubated at 37° C. for 1-2 hours in an environment containing 5% CO2. After the incubation, the dye is emptied from the plates, and the cells are washed once with KRH buffer, and resuspended in KRH buffer.
To measure the ability of a test compound to agonize or antagonize a calcium mobilization response in cells expressing capsaicin receptors to capsaicin or other vanilloid agonist, the EC50 of the agonist capsaicin is first determined. An additional 20 μl of KRH buffer and 1 μl DMSO is added to each well of cells, prepared as described above. 100 μl capsaicin in KRH buffer is automatically transferred by the FLIPR instrument to each well. Capsaicin-induced calcium mobilization is monitored using either FLUOROSKAN ASCENT (Labsystems; Franklin, Mass.) or FLIPR (fluorometric imaging plate reader system; Molecular Devices, Sunnyvale, Calif.) instruments. Data obtained between 30 and 60 seconds after agonist application are used to generate an 8-point concentration response curve, with final capsaicin concentrations of 1 nM to 3 μM. KALEIDAGRAPH software (Synergy Software, Reading, Pa.) is used to fit the data to the equation: […]
Test compounds are dissolved in DMSO, diluted in 20 μl KRH buffer so that the final concentration of test compounds in the assay well is between […] and 5 μM, and added to cells prepared as described above. The 96 well plates containing prepared cells and test compounds are incubated in the dark at room temperature for 0.5 to 6 hours. It is important that the incubation not continue beyond 6 hours. Just prior to determining the fluorescence response, 100 μl capsaicin in KRH buffer at twice the EC50 concentration determined as described above is automatically added by the FLIPR instrument to each well of the 96 well plate for a final sample volume of 200 μl and a final capsaicin concentration equal to the EC50. The final concentration of test compounds in the assay wells is between 1 μM and 5 μM. […] The concentration of antagonist required to provide a 50% decrease, relative to the response observed in the presence of capsaicin and without antagonist, is the IC50 for the antagonist, and is preferably below 1 micromolar, 100 nanomolar, 10 nanomolar or 1 nanomolar.

T1 sequence (Q8NER1 whole entry): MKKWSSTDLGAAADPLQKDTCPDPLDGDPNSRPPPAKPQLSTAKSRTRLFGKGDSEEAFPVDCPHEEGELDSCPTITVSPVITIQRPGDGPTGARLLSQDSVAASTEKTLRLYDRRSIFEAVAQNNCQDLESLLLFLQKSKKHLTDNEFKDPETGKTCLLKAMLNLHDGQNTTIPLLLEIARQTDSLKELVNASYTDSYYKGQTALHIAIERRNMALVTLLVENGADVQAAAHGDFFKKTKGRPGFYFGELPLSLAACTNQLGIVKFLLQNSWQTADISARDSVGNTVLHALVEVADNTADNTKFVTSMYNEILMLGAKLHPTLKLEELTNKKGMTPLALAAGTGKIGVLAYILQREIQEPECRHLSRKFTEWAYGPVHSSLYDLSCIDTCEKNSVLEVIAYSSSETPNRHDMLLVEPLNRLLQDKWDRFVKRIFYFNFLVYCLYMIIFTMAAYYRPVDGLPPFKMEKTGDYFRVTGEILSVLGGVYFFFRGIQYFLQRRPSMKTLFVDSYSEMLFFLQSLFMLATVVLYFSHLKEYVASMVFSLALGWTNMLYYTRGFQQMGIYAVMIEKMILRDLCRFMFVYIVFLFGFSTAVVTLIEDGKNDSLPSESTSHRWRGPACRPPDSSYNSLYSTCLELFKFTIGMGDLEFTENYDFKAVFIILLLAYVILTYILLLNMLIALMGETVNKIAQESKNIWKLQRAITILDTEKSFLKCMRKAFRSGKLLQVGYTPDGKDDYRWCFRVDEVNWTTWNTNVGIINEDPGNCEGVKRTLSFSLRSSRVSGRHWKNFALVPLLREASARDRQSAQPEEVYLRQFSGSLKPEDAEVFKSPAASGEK

Structure (SMILES): CN(CC(=O)O)c1cc(C(F)(F)F)c(-c2cnc3c(Nc4ccc(C(F)(F)F)cn4)ccnc3n2)nn1 [Compound 56, N-methyl-N-[5-(trifluoromethyl)-6-(8-{[5-(trifluoromethyl)pyridin-2-yl]amino}pyrido[2,3-b]pyrazin-3-yl)pyridazin-3-yl]glycine]
- IC50: < 1 µM

Structure (SMILES): CN(CC(N)=O)c1cc(C(F)(F)F)c(-c2cnc3c(Nc4ccc(C(F)(F)F)cn4)ccnc3n2)nn1 [Compound 57, N2-methyl-N2-[5-(trifluoromethyl)-6-(8-{[5-(trifluoromethyl)pyridin-2-yl]amino}pyrido[2,3-b]pyrazin-3-yl)pyridazin-3-yl]glycinamide]
- IC50: < 1 µM

Structure (SMILES): CNC(=O)CN(C)c1cc(C(F)(F)F)c(-c2cnc3c(Nc4ccc(C(F)(F)F)cn4)ccnc3n2)nn1 [Compound 58, N,N2-dimethyl-N2-[5-(trifluoromethyl)-6-(8-{[5-(trifluoromethyl)pyridin-2-yl]amino}pyrido[2,3-b]pyrazin-3-yl)pyridazin-3-yl]glycinamide]
- IC50: < 1 µM

Structure (SMILES): CN(C)C(=O)CN(C)c1cc(C(F)(F)F)c(-c2cnc3c(Nc4ccc(C(F)(F)F)cn4)ccnc3n2)nn1 [Compound 59, N,N,N2-trimethyl-N2-[5-(trifluoromethyl)-6-(8-{[5-(trifluoromethyl)pyridin-2-yl]amino}pyrido[2,3-b]pyrazin-3-yl)pyridazin-3-yl]glycinamide]
- IC50: < 1 µM

Structure (SMILES): NC(=O)c1cc(C(F)(F)F)c(-c2cnc3c(Nc4ccc(C(F)(F)F)cn4)ccnc3n2)nn1 [Compound 60, 5-(trifluoromethyl)-6-(8-{[5-(trifluoromethyl)pyridin-2-yl]amino}pyrido[2,3-b]pyrazin-3-yl)pyridazine-3-carboxamide]
- IC50: < 1 µM

Structure (SMILES): CN(C)CCOc1cc(C(F)(F)F)c(-c2cnc3c(Nc4ccc(C(F)(F)F)cn4)ccnc3n2)nn1 [Compound 62, 3-{6-[2-(dimethylamino)ethoxy]-4-(trifluoromethyl)pyridazin-3-yl}-N-[5-(trifluoromethyl)pyridin-2-yl]pyrido[2,3-b]pyrazin-8-amine]
- IC50: < 1 µM

Structure (SMILES): OCCOc1cc(C(F)(F)F)c(-c2cnc3c(Nc4ccc(C(F)(F)F)cn4)ccnc3n2)nn1 [Compound 63, 2-{[5-(trifluoromethyl)-6-(8-{[5-(trifluoromethyl)pyridin-2-yl]amino}pyrido[2,3-b]pyrazin-3-yl)pyridazin-3-yl]oxy}ethanol]
- IC50: < 1 µM

Structure (SMILES): CN(C)CCCOc1cc(C(F)(F)F)c(-c2cnc3c(Nc4ccc(C(F)(F)F)cn4)ccnc3n2)nn1 [Compound 64, 3-{6-[3-(dimethylamino)propoxy]-4-(trifluoromethyl)pyridazin-3-yl}-N-[5-(trifluoromethyl)pyridin-2-yl]pyrido[2,3-b]pyrazin-8-amine]
- IC50: < 1 µM

Structure (SMILES): CN1CCCC1CCOc1cc(C(F)(F)F)c(-c2cnc3c(Nc4ccc(C(F)(F)F)cn4)ccnc3n2)nn1 (stereo not drawn) [Compound 65, 3-{6-[2-(1-methylpyrrolidin-2-yl)ethoxy]-4-(trifluoromethyl)pyridazin-3-yl}-N-[5-(trifluoromethyl)pyridin-2-yl]pyrido[2,3-b]pyrazin-8-amine]
- IC50: < 1 µM

Structure (SMILES): CN(CCOCCO)c1cc(C(F)(F)F)c(-c2cnc3c(Nc4ccc(C(F)(F)F)cn4)ccnc3n2)nn1 [Compound 67, 2-(2-{methyl[5-(trifluoromethyl)-6-(8-{[5-(trifluoromethyl)pyridin-2-yl]amino}pyrido[2,3-b]pyrazin-3-yl)pyridazin-3-yl]amino}ethoxy)ethanol]
- IC50: < 1 µM

Structure (SMILES): CC(=O)c1cc(C(F)(F)F)c(-c2cnc3c(Nc4ccc(C(F)(F)F)cn4)ccnc3n2)nn1 [Compound 68, 1-[5-(trifluoromethyl)-6-(8-{[5-(trifluoromethyl)pyridin-2-yl]amino}pyrido[2,3-b]pyrazin-3-yl)pyridazin-3-yl]ethanone]
- IC50: < 1 µM

Structure (SMILES): CN(C)CCNc1cc(C(F)(F)F)c(-c2cnc3c(Nc4ccc(C(F)(F)F)cn4)ccnc3n2)nn1 [Compound 69, N,N-dimethyl-N′-[5-(trifluoromethyl)-6-(8-{[5-(trifluoromethyl)pyridin-2-yl]amino}pyrido[2,3-b]pyrazin-3-yl)pyridazin-3-yl]ethane-1,2-diamine]
- IC50: < 1 µM
